Data: ChEMBL document CHEMBL4665842, “Sortase A-Inhibitory Coumarins from the Folk Medicinal Plant Poncirus trifoliata” (J Nat Prod, 2020)
In brackets after ≈: the same amount, converted by molar mass. Activity calls are given as the source filed them. The calls are words filed in the database; no cut-off is given here.

What was measured:
Staphylococcus aureus [1] = assay: Antimicrobial activity against Staphylococcus aureus ATCC 6538p; type: functional
[2] = Inhibition of recombinant Staphylococcus aureus ATCC 6538p sortase A using dabcyl-LPETG-edans as substrate incubated for 2 hrs by fluorometric method
Staphylococcus aureus [3] = assay: Inhibition of Staphylococcus aureus Newman sortase A assessed as […] in fibrinogen-mediated cell clumping after 2 hrs; details: dose microM 25-100, time 2.0 hrs
Staphylococcus aureus [4] = assay: Inhibition of Staphylococcus aureus Newman sortase A assessed as […] in fibrinogen-mediated cell clumping at 100 uM after 2 hrs
Staphylococcus aureus [5] = assay: Inhibition of Staphylococcus aureus Newman sortase A assessed as reduction in bacterial adherence to fibronectin-coated surfaces up to 4 times of IC50 concentration for every 30 mins for 2.5 hrs; details: time hrs <=2.5

| SMILES | MIC (Staphylococcus aureus [1]) | IC50 [2] | inhibition (Staphylococcus aureus [3]) | fold change (FC) (Staphylococcus aureus [4]) | inhibition (Staphylococcus aureus [5]) |
| --- | --- | --- | --- | --- | --- |
| COC(C)(C)[C@H](O)COc1ccc2ccc(=O)oc2c1C[C@H](O)C(C)(C)O | > 337 µM | 76 µM |  |  |  |
| COC(C)(C)[C@H](O)COc1ccc2ccc(=O)oc2c1CC(=O)C(C)C | > 353 µM | 119 µM |  |  |  |
| CC1(C)S[C@@H]2[C@H](NC(=O)[C@H](N)c3ccccc3)C(=O)N2[C@H]1C(=O)O [AMPICILLIN] | 0.18 µM (≈ 0.0629 µg/mL) |  |  |  |  |
| CC(C)(O)[C@H](O)COc1c2ccoc2cc2oc(=O)ccc12 [OXYPEUCEDANIN HYDRATE] | > 421 µM | 230 µM |  |  |  |
| O=c1ccc2ccc(O)cc2o1 [UMBELLIFERONE] | > 790 µM |  |  |  |  |
| C=C(C)[C@H](O)COc1ccc2ccc(=O)oc2c1CC(=O)C(C)C | > 388 µM | 112 µM |  |  |  |
| COC(C)(C)[C@@H](O)Cc1c(OC[C@@H](O)C(C)(C)O)ccc2ccc(=O)oc12 | > 337 µM | 26.6 µM | Dose-dependent effect | > 2 | Active |
| C=C(C)[C@H](CC/C(C)=C/COc1ccc2ccc(=O)oc2c1)OO | > 388 µM | 23.5 µM | Dose-dependent effect | > 2 |  |
| CC(C)C(=O)Cc1c(OC[C@@H](O)C(C)(C)O)ccc2ccc(=O)oc12 | > 368 µM | 34.5 µM | Dose-dependent effect | > 2 | Active |
| C/C(=C\COc1ccc2ccc(=O)oc2c1)C/C=C/C(C)(C)OO | > 388 µM | 19.1 µM | Dose-dependent effect | > 2 | Active |
| O=C(O)/C=C/c1ccc(O)cc1 [COUMARIC ACID] | > 780 µM | > 780 µM |  |  |  |
| CC(C)(O)[C@H](O)COc1ccc2ccc(=O)oc2c1C[C@H](O)C(C)(C)O | > 350 µM | 47.2 µM | Dose-dependent effect | > 2 |  |
